In ChEMBL document CHEMBL1121705, “Synthesis and angiotensin-converting enzyme inhibitory activity of 3-(Mercaptomethyl)-2-oxo-1-pyrrolidineacetic acids and 3-(Mercaptomethyl)-2-oxo-1-piperidineacetic acids” (J Med Chem, 1981):

Biological target: Angiotensin-converting enzyme (Homo sapiens, UniProt P12821)
Test: Concentration required for 50% inhibition of Angiotensin I converting enzyme; call rule not given here
Assay type: protein assay, Cavia porcellus

Sequence of Angiotensin-converting enzyme (P12821 whole entry): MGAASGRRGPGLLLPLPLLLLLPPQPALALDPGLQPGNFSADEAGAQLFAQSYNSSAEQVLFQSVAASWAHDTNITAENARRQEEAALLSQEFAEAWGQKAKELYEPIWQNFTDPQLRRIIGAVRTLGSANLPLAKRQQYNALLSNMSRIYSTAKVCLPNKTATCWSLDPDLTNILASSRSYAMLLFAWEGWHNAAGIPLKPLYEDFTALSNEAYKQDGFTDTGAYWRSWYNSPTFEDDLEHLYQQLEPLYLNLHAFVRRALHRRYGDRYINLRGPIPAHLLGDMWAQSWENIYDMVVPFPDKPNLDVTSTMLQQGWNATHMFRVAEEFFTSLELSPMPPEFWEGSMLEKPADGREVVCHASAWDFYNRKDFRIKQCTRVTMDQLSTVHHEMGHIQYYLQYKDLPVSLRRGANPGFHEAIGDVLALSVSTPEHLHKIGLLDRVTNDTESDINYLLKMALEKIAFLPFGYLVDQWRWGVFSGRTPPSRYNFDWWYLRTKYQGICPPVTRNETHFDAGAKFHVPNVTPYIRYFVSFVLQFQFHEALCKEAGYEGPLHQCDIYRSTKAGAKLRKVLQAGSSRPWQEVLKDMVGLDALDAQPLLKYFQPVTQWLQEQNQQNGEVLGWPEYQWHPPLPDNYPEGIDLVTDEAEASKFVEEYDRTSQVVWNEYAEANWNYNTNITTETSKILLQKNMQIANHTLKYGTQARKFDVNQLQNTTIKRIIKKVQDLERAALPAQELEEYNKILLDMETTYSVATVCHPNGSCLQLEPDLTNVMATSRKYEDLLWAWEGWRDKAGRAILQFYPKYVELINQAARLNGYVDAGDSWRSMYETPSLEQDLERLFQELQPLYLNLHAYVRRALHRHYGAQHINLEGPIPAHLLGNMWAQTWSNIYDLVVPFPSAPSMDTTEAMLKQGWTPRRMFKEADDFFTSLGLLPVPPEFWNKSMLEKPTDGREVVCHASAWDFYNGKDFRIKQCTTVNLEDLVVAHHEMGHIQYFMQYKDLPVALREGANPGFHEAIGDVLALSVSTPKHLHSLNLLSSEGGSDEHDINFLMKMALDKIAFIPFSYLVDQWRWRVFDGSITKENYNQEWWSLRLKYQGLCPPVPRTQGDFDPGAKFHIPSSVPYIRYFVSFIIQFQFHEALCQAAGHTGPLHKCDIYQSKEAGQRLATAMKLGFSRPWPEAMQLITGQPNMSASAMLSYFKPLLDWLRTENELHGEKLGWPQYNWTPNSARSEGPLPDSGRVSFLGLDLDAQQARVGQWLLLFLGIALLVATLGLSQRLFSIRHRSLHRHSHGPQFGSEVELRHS

IC50: Not Active
SMILES: CC(=O)SCC1CCCN(CC(N)=O)C1=O (stereo unspecified)
